What was measured:
CCR5 [1] = biological target: T1, CCR5 (Homo sapiens, UniProt P51681); assay: Inhibition of 125I-MIP-1α binding to CCR5 (CCR5+ CHO cells)
T1 construct: expressed in transfected cells; host or cells: Chinese hamster ovary (CHO) cells expressing CCR5
Method: (§1) In order to determine whether GRL derivatives block the binding of CC-chemokines to CCR5, we conducted a CC-chemokine binding inhibition assay using ^125I-labeled CC-chemokines (^125I-RANTES, ^125I-MIP-1α, and ^125I-MIP-1β) and CCR5 expressing cells.
(§2) CCR5^+ CHO cells were incubated with (A) ^125I-MIP-1α, (B) ^125I-MIP-1β, and (C) ^125I-RANTES (200 ng/ml) in the presence or absence of varying concentrations of CCR5 inhibitors. Data are shown as means ± s.d. of three independent experiments.
(§3) The inhibition of the binding of ^125I-labeled CC-chemokines ([^125I] RANTES, [^125I] MIP-1α, or [^125I] MIP-1β) to CCR5 by various CCR5 inhibitors was measured as previously described. Calcium flux inhibition assays were also performed with CCR5 inhibitors, and were carried out with the Fluo-4 Direct^TM calcium reagent (Invitrogen); assays were conducted as previously described with minor modifications. In brief, CHO-CCR5 cells (5 × 10^5 cells) were exposed to Fluo-4 Direct^TM calcium reagent for 60 min at 37 °C in RPMI containing 5% FCS. Cells were then incubated with the test compound for 30 min at varying concentrations. Subsequently, cells were exposed to either MIP-1α, MIP-1β, or RANTES at 200 ng/ml. Relative increases in cytosolic Ca^2+ levels after chemokine exposure were determined with flow cytometry (FACSCalibur, BD Biosciences), and IC50 values of cytosolic Ca^2+ mobilization (Ca^2+ flux) were compared with the Ca^2+ flux level in drug-free control samples.

[2] = system: D1/85.16 cl.23 (VVC resistant); assay: microbe, parasite or virus in culture; type: cell-based, HIV-1
Method: (§4) MAGI-CCR5 cells[18] were maintained in DMEM supplemented with 10% fetal calf serum (FCS: Gemini Bio-Products, West Sacramento, CA), 200 μg/ml G418, 100 μg/ml hygromycin B, and 100 μg/ml zeomycin. The Chinese hamster ovary (CHO) cells expressing CCR5[19] were maintained in Ham’s F-12 medium (GIBCO-BRL, Rockville, MD) supplemented with 10% FCS, 50 U/ml penicillin, and 50 μg/ml streptomycin in the presence of 5 μg/ml blasticidin S hydrochloride. TZM-bl cells were obtained from the NIH AIDS Reagent Program, and were cultured in DMEM with 10% FCS. Peripheral blood mononuclear cells (PBMCs) were isolated from buffy coats of HIV-1 seronegative individuals, and were activated with 10 μg/ml phytohemagglutinin (PHA) prior to use[16]. A laboratory wild-type R5-HIV-1 strain (HIV-1Ba-L)[37] was employed for drug susceptibility assays. AD101 (experimental CCR5 inhibitor) and VVC-resistant HIV clones[7],[8] were provided by Dr. John P. Moore of Cornell University for this study. The clones were propagated with activated PBMCs, and were used for the assays. A clinical HIV-1 strain, HIV-1KP-5pc, and an MVC-resistant isolate, HIV-1KP-5mvcR, were prepared and used for antiviral assays, as previously described[10],[38]. The following reagents (plasmids) for T/F HIV-1 viruses[22],[24] were obtained through the NIH AIDS Reagent Program, Division of AIDS, NIAID, NIH: pCH040.c/2625 (cat# 11740), pCH106.c/2633 (cat# 11743), pTHRO.c/2626 (cat# 11745), and pCH058.c/2960 (cat# 11856), from Dr. John Kappes and Dr. Christina Ochsenbauer.
(§5) Antiviral assays using PHA-PBMCs (p24 assay) were conducted as previously reported[16],[38]. In brief, PHA-PBMCs (1 × 10^6/ml) were exposed to 50 TCID50 of HIV-1Ba-L or drug-resistant HIV-1 infectious clones in the presence or absence of various concentrations of drugs; 10-fold serial dilutions were performed in 96-well microculture plates. The amount of p24 antigens produced by the cells was determined on day 7 in the culture via a commercially available ELISA kit (PerkinElmer). The p24 production level in drug-free control cell cultures was used as the reference. […] Antiviral assays using MAGI-CCR5 cells (MAGI assay) were conducted as previously reported[16],[39]. Single-round virus infection assays using TZM-bl cells infected with R5-HIV-1s (HIV-1YU2, HIV-1KP-5pc, and HIV-1KP-5mvcR)[10] were also conducted as previously described.

[3] = system: CC101.19 cl.7 (AD101 resistant); assay: microbe, parasite or virus in culture; type: cell-based, HIV-1
Method: as §4, §5

CCR5 [4] = biological target: T1, CCR5; assay: Inhibition of 125I-MIP-1β binding to CCR5 (CCR5+ CHO cells)
Method: as §1, §2, §3

CCR5 [5] = biological target: T1, CCR5; assay: Inhibition of 125I-RANTES binding to CCR5 (CCR5+ CHO cells)
Method: as §1, §2, §3

HIV-1KP-5mvcR = assay: TZM-bl single-round infection assay, MVC-resistant HIV-1KP-5mvcR; type: cell-based
Method: as §4, §5

[6] = Human immunodeficiency virus 1, TZM-bl

T1 sequence (P51681 whole entry): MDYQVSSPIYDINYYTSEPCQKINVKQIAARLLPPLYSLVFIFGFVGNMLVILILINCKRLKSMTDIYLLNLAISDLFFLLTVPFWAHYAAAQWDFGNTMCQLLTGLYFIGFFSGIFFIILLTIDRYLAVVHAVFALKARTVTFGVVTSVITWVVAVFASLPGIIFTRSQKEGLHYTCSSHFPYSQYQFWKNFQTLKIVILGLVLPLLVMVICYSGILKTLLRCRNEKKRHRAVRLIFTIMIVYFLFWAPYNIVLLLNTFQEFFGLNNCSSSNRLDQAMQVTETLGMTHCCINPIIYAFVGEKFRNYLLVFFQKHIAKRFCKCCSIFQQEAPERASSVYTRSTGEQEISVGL

**Q.** For `C=CCN(C(=O)OCc1ccc([N+](=O)[O-])cc1)C1CC2CCC(C1)N2CCC(C)(CN(C)S(=O)(=O)c1ccccc1)c1ccccc1` (stereo not drawn) [GRL-117C], which EC50 (CCR5 [1]) is on record?
**A.** 4.3 nM

**Q.** What about the IC50 ([2]; D1/85.16 cl.23 (VVC resistant)) of the same compound?
**A.** 29.8 nM

**Q.** And the IC90 ([2]; Human immunodeficiency virus 1)?
**A.** 415 nM

**Q.** And the IC50 ([2]; Human immunodeficiency virus 1, D1/85.16 cl.23 (VVC resistant))?
**A.** < 40 nM

**Q.** And the IC50 ([3]; CC101.19 cl.7 (AD101 resistant))?
**A.** 32.5 nM

**Q.** And the IC90 ([3]; Human immunodeficiency virus 1)?
**A.** 296 nM

**Q.** And the IC50 ([3]; Human immunodeficiency virus 1, CC101.19 cl.7 (AD101 resistant))?
**A.** < 40 nM

**Q.** What about the EC50 (CCR5 [4]) of the same compound?
**A.** 2 nM

**Q.** And the EC50 (CCR5 [5])?
**A.** 121 nM

**Q.** And the “IC50 against HIV-1KP-5mvcR relative to that of MVC” value (HIV-1KP-5mvcR; 686 nM vs MVC 41 nM)?
**A.** more than 10 fold

**Q.** And the IC50 (HIV-1KP-5mvcR; [6])?
**A.** 686 ± 89 nM

**Q.** What about the IC90 (HIV-1KP-5mvcR; [6]) of the same compound?
**A.** > 100 nM

— paper PMC6423129, “Activity and structural analysis of GRL-117C: a novel small molecule CCR5 inhibitor active against R5-tropic HIV-1s” (Scientific Reports, 2019)
